Laboratory results taken from patent US9493402B2, “Omega-aminoalkylamides of R-2-aryl-propionic acids as inhibitors of the chemotaxis of polymorphonucleate and mononucleate cells” (Dompé S.p.A., priority 2001, dated 2016).
Counter-ions that a name gives are not always drawn. One block for each molecule: values may come before it.

Experiments:
[1] = system: human circulating polymorphonucleates (PMNs), C5a induced chemotaxis; test: C5a-induced chemotaxis of human PMNs (microchamber assay); type: cell-based; details: compound 10^-5 M (so in the source), C5a 1 ng/mL
Procedure: (§1) The compounds of the invention of formula (I) were evaluated “in vitro” for their ability to inhibit chemotaxis of polymorphonucleate leukocytes (hereinafter referred to as PMNs) and monocytes, induced by the fractions of the complement C5a and C5a-desArg. For this purpose, to isolate the PMNs from heparinized human blood, taken from healthy adult volunteers, mononucleates were removed by means of sedimentation on dextrane (according to the procedure disclosed by W. J. Ming et al., J. Immunol., 138, 1469, 1987) and red blood cells by a hypotonic solution. The cell vitality was calculated by exclusion with Trypan blue, whilst the ratio of PMNs was estimated on the cytocentrifugate after staining with Diff Quick.
The fractions hr-C5a and hrC5a-desArg (Sigma) were used as stimulating agents in chemotaxis experiments, obtaining practically identical results.
Lyophilized C5a was dissolved in a volume of HBSS containing 0.2% BSA so as to obtain a stock solution having a concentration of 10^−5 M, to be diluted in HBSS to a concentration of 10^−9 M, for the chemotaxis assays.
(§2) In the chemotaxis experiments, the PMNs were incubated with the compounds of the invention of formula (I) for 15′ at 37° C. in an atmosphere containing 5% CO2.
(§3) The chemotactic activity of the C5a was evaluated on human circulating polymorphonucleates (PMNs) resuspended in HBSS at a concentration of 1.5×10^6 PMNs per ml.
(§4) During the chemotaxis assay (according to W. Falket et al., J. Immunol. Methods, 33, 239, 1980) PVP-free filters with a porosity of 5 mcm and microchambers suitable for carrying out the test were used.
[…] The wells in the lower part contain the solution of C5a or the simple carrier, those in the upper part contain the suspension in PMNs.
Inhibition of C5a-induced chemotactic activity by the individual compounds of the invention of formula (I) was evaluated by incubating the microchamber for the chemotaxis for 60 min at 37° C. in an atmosphere containing 5% CO2.

[2] = system: human PMNs (rhIL-8 induced chemotaxis); test: IL-8-induced chemotaxis of human PMNs (microchamber assay); type: cell-based; details: IL-8 10 ng/mL; for inhibition at 0.01 µM: compound 10^-8 M; for inhibition at 1 µM: compound c = 10^-6 M
Procedure: as §1, §2, §3, §4
The compounds of the invention in formula (I) were evaluated at a concentration ranging between 10^−6 and 10^−10 M; for this purpose they were added, at the same concentration, both to the lower pores and the upper pores of the microchamber. The wells in the lower part contain the solution of C5a or the simple carrier, those in the upper part contain the suspension in PMNs.
The compounds of the invention were also evaluated in their ability to inhibit IL-8-induced chemotaxis of human PMNs. For this purpose, recombinant human interleukin-8 (rhIL-8, Pepro Tech) was used: the lyophilized protein was dissolved in HBSS (Hank's balanced salts solution) at the concentration of 100 mcg/mL and then diluted down to a concentration of 10 ng/mL in the chemotaxis experiments. R(−)-2-[(4′-isobutyl)phenyl]-propionyl methansulfonamide (ED50=10^−9 M) described in WO 00/24710, was used as reference standard.

[3] = system: human PMNs (rhIL-8 induced chemotaxis); details: reference standard; rhIL-8 10 ng/mL; read-out: ED50 (inhibition of IL-8-induced chemotaxis of human PMNs); cited from earlier work

melting point: 216 to 220 °C
Structure (SMILES): CC(C)Cc1ccc([C@@H](C)C(=O)NCCCN2CCN(C)CC2)cc1.Cl.Cl

Structure (SMILES): CC(C)c1cccc([C@@H](C)C(=O)NCCCN(C)C)c1 [(R) 2-(3-isopropylphenyl)-N-3-(dimethylaminopropyl)propionamide]
inhibition at 10 µM ([1]; 1 h): 42 ± 18%
inhibition at 10 µM [1]: 42 ± 18%
inhibition at 0.01 µM [2]: 5 ± 6%
inhibition at 1 µM [2]: 48 ± 2%

melting point: 90 to 93 °C
Structure (SMILES): CC(C)Cc1ccc([C@@H](C)C(=O)NCCCN2CCOCC2)cc1.Cl [(R) 2-(4-isobutylphenyl)-N-3-(N-morpholinylpropyl)propionamide.HCl]
inhibition at 10 µM ([1]; 1 h): 24 ± 11%
inhibition at 0.01 µM [2]: 55 ± 12%

Structure (SMILES): CC(C)Cc1ccc([C@@H](C)C(=O)NC2CCN(C)CC2)cc1 [(R) 2-(4-isobutylphenyl)-N-(1-methyl-piperidin-4-yl)propionamide hydrochloride]
inhibition at 10 µM ([1]; 1 h): 48 ± 8%
inhibition at 0.01 µM [2]: 4 ± 9%

Structure (SMILES): CC(C)Cc1ccc([C@@H](C)C(=O)NCCCN)cc1 [(R) 2-(4-isobutylphenyl)-N-(3-aminopropyl)propionamide hydrochloride]
inhibition at 10 µM ([1]; 1 h): 84 ± 8%
inhibition at 0.01 µM [2]: 2 ± 7%

melting point: 95 to 98 °C
Structure (SMILES): CC(C)Cc1ccc([C@@H](C)C(=O)NCCCN(C)C)cc1.Cl [(R) 2-(4-isobutylphenyl)-N-(3-dimethylaminopropyl)propionamide hydrochloride]
inhibition at 10 µM ([1]; 1 h): 65 ± 14%
inhibition at 0.01 µM [2]: 51 ± 15%

melting point: 95 to 97 °C
Structure (SMILES): CC(C)Cc1ccc([C@@H](C)C(=O)NCCCCN(C)C)cc1.Cl [(R) 2-(4-isobutylphenyl)-N-(4-dimethylaminobutyl)propionamide. HCl]
inhibition at 10 µM ([1]; 1 h): 55 ± 8%
inhibition at 0.01 µM [2]: 34 ± 6%

Structure (SMILES): CC(C)Cc1ccc([C@@H](C)C(=O)N[C@@H]2C[C@H]3CC[C@@H](C2)N3C)cc1 [(R) 2-(4-isobutylphenyl)-N-(exo-8-methyl-8-aza-bicyclo[3.2.1]oct-3-yl)propionamide hydrochloride]
inhibition at 10 µM ([1]; 1 h): 57 ± 6%
inhibition at 0.01 µM [2]: 3 ± 8%

melting point: 76 to 80 °C
Structure (SMILES): CC(C)Cc1ccc([C@@H](C)C(=O)NCCCN2CCCCC2)cc1.Cl [(R) 2-(4-isobutylphenyl)-N-[3-(1-piperidinyl)propyl]propionamide hydrochloride]
inhibition at 10 µM ([1]; 1 h): 76 ± 6%
inhibition at 0.01 µM [2]: 46 ± 8%

Structure (SMILES): CC(C)Cc1ccc([C@@H](C)C(=O)NC(CCCCN)C(=O)O)cc1 (stereo partly drawn) [(R),(S′) 2-(4′-isobutylphenyl)-N-(1-carboxy-5-aminopentyl)propionamide hydro-chloride]
inhibition at 10 µM ([1]; 1 h): 49%
inhibition at 0.01 µM [2]: 5%

melting point: 90 to 93 °C
Structure (SMILES): CC(C)Cc1ccc([C@@H](C)C(=O)NCCN(C)C)cc1.Cl [(R)-2-(4-isobutylphenyl)-N-(2-dimethylaminoethyl)propionamide.HCl]
inhibition at 10 µM ([1]; 1 h): 62 ± 12%
inhibition at 0.01 µM [2]: 56 ± 13%

Structure (SMILES): C[C@@H](C(=O)NCCCN(C)C)c1ccccc1Nc1c(Cl)cccc1Cl [(R)-2-[2-(2,6-dichlorophenylamino)-phenyl]-N-3-(dimethylaminopropyl) propionamide]
inhibition at 10 µM ([1]; 1 h): 41 ± 2%
inhibition at 10 µM [1]: 41 ± 2%
inhibition at 0.01 µM [2]: 1 ± 13%
inhibition at 1 µM [2]: 58 ± 6%

Structure (SMILES): C[C@@H](C(=O)NCCCN(C)C)c1cccc(C(=O)c2ccccc2)c1 [(R)-2-[(3-benzoyl)phenyl]-N-(3-dimethylaminopropyl)propionamide]
inhibition at 10 µM ([1]; 1 h): 56 ± 2%
inhibition at 0.01 µM [2]: 53 ± 8%

Structure (SMILES): CC(C)Cc1ccc([C@@H](C)C(=O)NS(C)(=O)=O)cc1 [R(−)-2-[(4′-isobutyl)phenyl]-propionyl methansulfonamide]
EC50 [3]: 1 nM

Structure (SMILES): CC(C)Cc1ccc([C@@H](C)C(=O)NCC(=O)NCCN(C)C)cc1 [R-2-[(4′-isobutylphenyl]-N-[2-(dimethylaminoethyl)aminocarbonylmethyl]-propionamide hydrochloride]
inhibition at 10 µM ([1]; 1 h): 68 ± 4%
inhibition at 0.01 µM [2]: 31 ± 6%

Structure (SMILES): CC(C)Cc1ccc([C@@H](C)C(=O)N[C@@H](CCCN2CCCCC2)C(=O)O)cc1 [sodium salt]
inhibition at 10 µM ([1]; 1 h): 33 ± 15%
inhibition at 0.01 µM [2]: 56 ± 9%
